# Measurements published in US20050113450A1, “Antibacterial agents” (priority 2002, published 2005).
# System: SA 9218
# Experiment: MIC by standard agar dilution method
# Format: cell-based
# Conditions: Mueller Hinton agar, 10^4 to 10^5 cells per spot, incubated overnight at 35° C., lowest concentration that inhibits visible growth
# How it was run: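 Agar dilution: two-fold compound dilutions mixed into molten Mueller Hinton agar, spots of ~10^4–10^5 cells from 0.5 McFarland suspension diluted 1:20 in TSB. Incubated overnight at 35 °C; MIC is lowest concentration inhibiting visible growth.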
Compound,MIC,SA 9218 MIC
Cc1ccc(C(=O)Nc2ccc(Br)cc2C(=O)O)cc1S(=O)(=O)Nc1ccc2c(c1)OCCO2,1 µg/mL,
CSc1ccc(C(=O)Nc2ccc(C#N)cc2C(=O)O)cc1,0.5 µg/mL,
COC(=O)COc1ccc(C(=O)Nc2ccc(Br)cc2C(=O)O)cc1,64 µg/mL,
O=C(Nc1ccc(Br)cc1C(=O)O)c1ccc2c(c1)OCO2,16 µg/mL,
COC(=O)COc1cccc(C(=O)Nc2ccc(Br)cc2C(=O)O)c1,32 µg/mL,
Cc1ccc(C(=O)Nc2ccc(Br)cc2C(=O)O)cc1S(=O)(=O)N(C)c1ccc(Cl)cc1 [drawing 1134],,1 µg/mL
COC(COc1ccc(C(=O)Nc2ccc(Br)cc2C(=O)O)cc1)c1ccccc1 (centres unmarked),64 µg/mL,
O=C(Nc1ccc(Br)cc1C(=O)O)c1ccc2ccccc2c1,2 µg/mL,
O=C(Nc1ccc(Br)cc1C(=O)O)c1cc(S(=O)(=O)N2CCc3ccc(Cl)cc32)ccc1Br,2 µg/mL,
O=C(Nc1ccc(Br)cc1C(=O)O)c1cc(S(=O)(=O)Nc2ccc(F)c(Cl)c2)c(F)cc1Cl,> 128 µg/mL,
O=C(Nc1ccc(Br)cc1C(=O)O)c1ccc(Br)c(S(=O)(=O)Nc2ccc3c(c2)OCCO3)c1,64 µg/mL,
C=CCON=C(c1ccc(C(=O)Nc2ccc(Cl)cc2C(=O)O)cc1)c1ccco1 [drawing 1095],32 µg/mL,
COc1cc(OC)cc(C(=O)Nc2ccc(C#N)cc2C(=O)O)c1,8 µg/mL,
COc1ccc(C(=O)c2ccc(C(=O)Nc3ccc(Cl)cc3C(=O)O)cc2)cc1,2 µg/mL,
O=C(O)c1cc(Br)ccc1NC(=O)c1ccc(F)c2ccccc12,32 µg/mL,
O=C(Nc1ccc(Br)cc1C(=O)O)c1ccc(OCCOc2ccccc2)cc1,128 µg/mL,
Cl.O=C(Nc1ccc(Br)cc1C(=O)O)c1cccc(SCc2ccncc2)c1 [PHA-502339A],8 µg/mL,
CCON=C(c1ccc(NC(=O)c2ccc(S(=O)(=O)N3CCc4ccccc43)cc2)c(C(=O)O)c1)C(C)C,64 µg/mL,
O=C(Nc1ccc(Br)cc1C(=O)O)c1ccc(Br)c(S(=O)(=O)NC2Cc3ccccc3C2)c1,64 µg/mL,
O=C(Nc1ccc(I)cc1C(=O)O)c1cccc(S(=O)(=O)N2CC=CC2)c1,8 µg/mL,
CCN(Cc1ccncc1)S(=O)(=O)c1cc(C(=O)Nc2ccc(Br)cc2C(=O)O)ccc1Br,128 µg/mL,

Compound,MIC,SA 9218 MIC
COc1ccc([N+](=O)[O-])c(C(=O)Nc2ccc(Br)cc2C(=O)O)c1,> 128 µg/mL,
Cc1ccc(C(=O)Nc2ccc(Br)cc2C(=O)O)cc1S(=O)(=O)Nc1ccc(Cl)c2ccccc12,8 µg/mL,
O=C(Nc1ccc(Cl)cc1C(=O)O)c1cccc(C(=O)c2ccc(Cl)cc2)c1,4 µg/mL,
O=C(Nc1ccc(Br)cc1C(=O)O)c1ccc(S(=O)(=O)NC2Cc3ccccc3C2)cc1,32 µg/mL,
O=C(Nc1ccc(Cl)cc1C(=O)O)c1ccc(C(=NO)c2cccnc2)cc1,32 µg/mL,
O=C(Nc1ccc(Br)cc1C(=O)O)c1ccc(S(=O)(=O)Nc2ccc3c(c2)OCCO3)cc1,16 µg/mL,
O=C(Nc1ccc(Cl)cc1C(=O)O)c1ccc(C(=O)C2CCCC2)cc1 [drawing 1111],4 µg/mL,
O=C(Nc1ccc(Br)cc1C(=O)O)c1cc(S(=O)(=O)N2CCc3ccccc32)c(F)cc1Cl,8 µg/mL,
O=C(NCCOc1ccc(C(=O)Nc2ccc(Br)cc2C(=O)O)cc1)OCc1ccccc1,64 µg/mL,
O=C(Nc1ccc(Cl)cc1C(=O)O)c1ccc(C(=O)c2ccc(Cl)cc2)cc1,4 µg/mL,
O=C(Nc1ccc(Br)cc1C(=O)O)c1cc(S(=O)(=O)N2CCc3ccc(Cl)cc32)c(F)cc1Cl,16 µg/mL,
N#Cc1ccc(NC(=O)c2cccc3ccccc23)c(C(=O)O)c1,16 µg/mL,
CN(CCOc1ccc(C(=O)Nc2ccc(Br)cc2C(=O)O)cc1)Cc1ccccc1,128 µg/mL,
CC(C)Oc1ccc(C(=O)Nc2ccc(Br)cc2C(=O)O)cc1,64 µg/mL,
CCSc1ccc(C(=O)Nc2ccc(Br)cc2C(=O)O)cc1,0.5 µg/mL,
CCOc1cccc(C(=O)Nc2ccc(Br)cc2C(=O)O)c1,64 µg/mL,
CCN(CC)c1ccc(NS(=O)(=O)c2cc(C(=O)Nc3ccc(Br)cc3C(=O)O)ccc2C)cc1,64 µg/mL,
CCC(CC)C(=O)c1cccc(C(=O)Nc2ccc(Cl)cc2C(=O)O)c1,8 µg/mL,
COCC1CCCN1S(=O)(=O)c1cccc(C(=O)Nc2ccc(C#N)cc2C(=O)O)c1 (centres unmarked),64 µg/mL,
COc1cc(C(=O)c2ccc(C(=O)Nc3ccc(Cl)cc3C(=O)O)cc2)cc(OC)c1OC,4 µg/mL,

# Second part, the compound after the results:
MIC,SA 9218 MIC,Compound
,32 µg/mL,CC(C(O)c1ccccc1)N(C)S(=O)(=O)c1ccc(C(=O)Nc2ccc(C#N)cc2C(=O)O)cc1 (centres unmarked) [PHA-571228]
16 µg/mL,,CC(C)(C)CC(=O)c1cccc(C(=O)Nc2ccc(Cl)cc2C(=O)O)c1 [PHA-656889]
64 µg/mL,,N#Cc1ccc(NC(=O)c2cccc(S(=O)(=O)N3CCN(c4ccccc4)CC3)c2)c(C(=O)O)c1 [PHA-571208]
128 µg/mL,,N#CCCN(Cc1ccccc1)S(=O)(=O)c1cccc(C(=O)Nc2ccc(C#N)cc2C(=O)O)c1 [PHA-571238]
2 µg/mL,,N#Cc1ccc(-c2ccc(NC(=O)c3cccc(S(=O)(=O)N4CCc5cc(Cl)ccc54)c3)c(C(=O)O)c2)cc1 [PHA-563276]
0.125 µg/mL,,O=C(Nc1ccc(Br)cc1C(=O)O)c1ccc(S(=O)(=O)n2ccc3ccccc32)cc1 [PNU-283318]
32 µg/mL,,CN(c1ccc(Cl)cc1)S(=O)(=O)c1cc(C(=O)Nc2ccc(Br)cc2C(=O)O)ccc1N1CCOCC1 [PNU-293795]
1 µg/mL,,O=C(Nc1ccc(Br)cc1C(=O)O)c1cc(Br)cc(S(=O)(=O)N2CCc3cc(Br)ccc32)c1 [PHA-515585]
32 µg/mL,,CCOC(=O)C1CCC(Oc2cccc(C(=O)Nc3ccc(Br)cc3C(=O)O)c2)CC1 (centres unmarked) [PHA-571289]
64 µg/mL,,CC1CN(S(=O)(=O)c2ccc(C(=O)Nc3ccc(C#N)cc3C(=O)O)cc2)CC(C)O1 (centres unmarked) [PHA-571182]
64 µg/mL,,COCC1CCCN1S(=O)(=O)c1ccc(C(=O)Nc2ccc(C#N)cc2C(=O)O)cc1 (centres unmarked) [PHA-571257]
1 µg/mL,,Cc1cc(C(=O)Nc2ccc(C#N)cc2C(=O)O)cc(S(=O)(=O)N2CCc3ccccc32)c1 [PHA-556214]
> 128 µg/mL,,CO/N=C/c1ccc(NC(=O)c2cccc(S(=O)(=O)N3CCOCC3)c2)c(C(=O)O)c1 [PHA-679759]
64 µg/mL,,N#Cc1ccc(NC(=O)c2cccc(S(=O)(=O)NC3CCc4ccccc43)c2)c(C(=O)O)c1 (centres unmarked) [PHA-656807]
,0.5 µg/mL,N#Cc1ccc(NC(=O)c2cccc(S(=O)(=O)N3CCOCC3)c2)c(C(=O)O)c1 [PHA-568420]
> 128 µg/mL,,O=C(Nc1ccc(Br)cc1C(=O)O)c1ccc(NC(=O)c2sc3ccccc3c2Cl)cc1 [PHA-713392]
64 µg/mL,,N#Cc1ccc(NC(=O)c2cccc(C(=O)N3CCOCC3)c2)c(C(=O)O)c1 [PHA-662412]
0.125 µg/mL,,N#Cc1ccc(NC(=O)c2cccc(S(=O)(=O)n3ccc4ccccc43)c2)c(C(=O)O)c1 [PHA-543141]

MIC,SA 9218 MIC,Compound
2 µg/mL,,O=C(Nc1ccc(Br)cc1C(=O)O)c1cccc(Oc2ccccc2)c1 [PHA-513535]
8 µg/mL,,CN(CCc1ccccc1)S(=O)(=O)c1cccc(C(=O)Nc2ccc(C#N)cc2C(=O)O)c1 [PHA-571215]
> 128 µg/mL,,N#Cc1ccc(NC(=O)c2ccc(S(=O)(=O)NC3CCc4ccccc43)cc2)c(C(=O)O)c1 (centres unmarked) [PHA-656866]
32 µg/mL,,N#Cc1ccc(NC(=O)c2cccc(S(=O)(=O)N3CCC(C#N)(c4ccccc4)CC3)c2)c(C(=O)O)c1 [PHA-571262]
0.125 µg/mL,,N#Cc1ccc(NC(=O)c2cccc(S(=O)(=O)n3ccc4cc(Cl)ccc43)c2)c(C(=O)O)c1 [PHA-543681]
8 µg/mL,,CC1CCCN(S(=O)(=O)c2cccc(C(=O)Nc3ccc(C#N)cc3C(=O)O)c2)C1 (centres unmarked) [PHA-571270]
0.5 µg/mL,,COc1ccc(Oc2cccc(C(=O)Nc3ccc(C#N)cc3C(=O)O)c2)cc1 [PHA-564215]
> 128 µg/mL,,N#Cc1ccc(NC(=O)c2ccc(S(=O)(=O)N3CCCC3CO)cc2)c(C(=O)O)c1 (centres unmarked) [PHA-656868]
8 µg/mL,,N#Cc1cccc(NC(=O)Nc2cccc(C(=O)Nc3ccc(Br)cc3C(=O)O)c2)c1 [PHA-708990]
4 µg/mL,,Cc1cc(C(=O)Nc2ccc(Cl)cc2C(=O)O)cc(S(=O)(=O)N2CCc3ccccc32)c1 [PHA-664658]
16 µg/mL,,CN(c1ccc(Cl)cc1)S(=O)(=O)c1ccc(C(=O)Nc2ccc(Br)cc2C(=O)O)cc1 [PNU-276988]
2 µg/mL,,Cc1csc(-c2ccc(NC(=O)c3cccc(S(=O)(=O)N4CCc5cc(Cl)ccc54)c3)c(C(=O)O)c2)c1 [PHA-563277]
8 µg/mL,,N#Cc1ccc(C(=O)Nc2ccc(Br)cc2C(=O)O)cc1S(=O)(=O)N1CCc2ccccc21 [PNU-293905]
16 µg/mL,,CN(c1ccc(Cl)cc1)S(=O)(=O)c1cccc(C(=O)Nc2ccc(C(F)(F)F)cc2C(=O)O)c1 [PHA-500334]
1 µg/mL,,Cc1ccc(NC(=O)c2cccc(S(=O)(=O)N3CCc4cc(Cl)ccc43)c2)c(C(=O)O)c1 [PHA-552831]
0.25 µg/mL,,Cc1c(C(=O)Nc2ccc(C#N)cc2C(=O)O)cccc1S(=O)(=O)N1CCc2cc(Cl)ccc21 [PHA-728844]
32 µg/mL,,C=CCC(CC=C)Oc1ccc(C(=O)Nc2ccc(Br)cc2C(=O)O)cc1 [PHA-571292]
0.25 µg/mL,,N#Cc1ccc(NC(=O)c2cc(Br)cc(S(=O)(=O)N3CCc4ccccc43)c2)c(C(=O)O)c1 [PHA-630965]
